This note sets out measurements from US20250319032A1, “PHARMACEUTICAL COMPOSITIONS OF RIBOCICLIB” (Novartis AG, priority 2024, published 2025).

A short description of series [1]: Bioanalysis and toxicokinetic evaluation of DMP433 in mouse plasma and tissues. It counts as in vivo. The note with it: 100 mg/kg/day, Day 14. As for the experimental part: (§1) In a previously conducted range-finding study (Labcorp Study Number 8526660) DMP433 was dosed orally in groups of 6 males and 6 females at 500, 100 or 50 mg/kg/day daily for up to 14 days. […] Where clinical signs were seen, animals had recovered prior to dosing the following day. A single Day 1 (Subgroup 1) female satellite animal was removed from the study due to the severity of the clinical observations. […] Where clinical signs were seen, animals had recovered prior to dosing the following day. […] Therefore, dosing in males and females will be conducted.
The blood samples will be processed. Determination of DMP433 in mouse plasma containing K2EDTA as an anticoagulant will be conducted by Labcorp Bioanalytical in accordance with Labcorp Policies, and all procedures will be conducted following method DMP4MPP validated under Labcorp study number 8527178.
Toxicokinetic parameters will be estimated using Phoenix® WinNonlin® version 8.1 or higher (Certara USA, Inc., Princeton, New Jersey). A non-compartmental approach consistent with the oral route of administration will be used for parameter estimation. […]
For determination of mean DMP433 concentrations, concentration values that are below the limit of quantitation will be treated as zero. […]
Bioanalytical data will be used as received for the toxicokinetic analysis. Toxicokinetic parameters will be calculated. […]

For the next series, the system named is Muta™ Mice. Description: Range-finding oral toxicity study of DMP433 (Labcorp Study Number 8526660). Format: in vivo, mouse. The method, then: as §1
(§2) Based on the toxicity and bioanalytical data generated under Labcorp Study Number 8526660, the maximum tolerated dose level (MTD) of 100 mg/kg/day* will be used as the high dose level. Two further doses of 50 and 25 mg/kg/day, will also be tested in males (OECD, 2022). As there is a crossover in exposure between males and females, vehicle controls and the MTD of 100 mg/kg/day only will be evaluated in females. • group 4 male animals given 80 mg/kg/day from Day 4 of dosing onwards due to mortality/morbidity.

Assay in series [2]: as above
Conditions: both sexes, Muta™ Mouse, mouse, in vivo; oral, daily; read-out: maximum tolerated dose level (MTD). It counts as in vivo, mouse. As for the experimental part:
as §1, §2

Series [3] in a line: Stability of DMP433 dose formulations in vehicle. Format: physicochemical. The note with it: 0.5 and 50 mg/mL; 2 to 8° C. and 15 to 25° C., protected from light. As for the experimental part: The vehicle control is 2.2 eq HCl 1.ON (˜40%)+28% as powder sulfobutylether-β-cyclodextrin (pH 2.0+0.5), with storage conditions in dispensary of 2 to 8° C. protected from light.
The test item formulation will be prepared daily, unless stability data supports less frequent preparation. The stability data will be generated under Labcorp Study Number 8528626. DMP433 formulations in vehicle at concentrations of 0.5 and 50 mg/mL have been confirmed as stable for up to 8 days at 2 to 8° C. and 15 to 25° C., both protected from light. The storage conditions in central dispensary will be 15 to 25° C. protected from light.
The formulation will be analysed (HPLC/UV analysis, Lapcorp method 8528626-01F, version in force on 22nd February 2024) to confirm that it achieves concentration and homogeneity. Samples (as shown in the following tables, where n/a means not applicable) will be taken from the main experiment during week 1 and week 4 and analysed accordingly.

Series [4] concerns lacZ transgene within the bone marrow, liver, kidney, and duodenum from treated Muta™ Mice. Description: Transgenic gene mutation assay in Muta™ Mice (lacZ). Format: in vivo, Muta™ Mouse CD2-lacZ80/HazfBR. The note with it: oral gavage, 28 consecutive days, sampling day 31. From the text:
A study is on-going, with the objective of evaluating the potential of DMP433 to induce gene mutations in the lacZ transgene within the bone marrow, liver, kidney, and duodenum from treated Muta™ Mice. The bone marrow and liver will be examined as these tissues are expected to be highly exposed to DMP433 upon oral gavage dosing and/or representative of organs with fast and slow dividing cells respectively. The duodenum will be assessed as a site of contact tissue following oral gavage dosing. The kidney will also be examined as a standard target organ for tumours for nitrosamines.
The animals used will be transgenic mouse of the strain Muta™ Mouse CD2-lacZ80/HazfBR (supplied by Charles River, UK). The animals will have an age range of approximately 8 to 12 weeks on the first day of dosing, and a weight range of approximately 18 to 35 g. […]
Based on the toxicity and bioanalytical data generated under Labcorp Study Number 8526660, the maximum tolerated dose level (MTD) of 100 mg/kg/day* will be used as the high dose level. […] As there is a crossover in exposure between males and females, vehicle controls and the MTD of 100 mg/kg/day only will be evaluated in females. • group 4 male animals given 80 mg/kg/day from Day 4 of dosing onwards due to mortality/morbidity. […]

Consider `CN(C)C(=O)c1cc2cnc(Nc3ccc(N4CCN(N=O)CC4)cn3)nc2n1C1CCCC1` [DMP433, 7-cyclopentyl-N,N-dimethyl-2-((5-(4-nitrosopiperazin-1-yl)pyridin-2-yl)amino)-7H-pyrrolo[2,3-d]pyrimidine-6-carboxamide], for which, in series [1], the “sex difference in bioanalytical data” value is recorded as “approximately 2 fold”. In addition, in the series on Muta™ Mice (50 mg/kg/day oral, 14 days), the “bodyweight, Range-Finder 3” value was “all animals except one (male M5209) had gained bodyweight”. Besides, in the series on Muta™ Mice (50 mg/kg/day oral, up to 14 days, Subgroup 2 animals), the “clinical signs, Range-Finder 3” value is “squinting, mild decreased activity and piloerection”. In the series on Muta™ Mice (100 mg/kg/day oral, 14 days), the “bodyweight, Range-Finder 2” value is “all animals gained bodyweight during the 14-day dosing period”. In addition, the “clinical signs, Range-Finder 2” value in the series on Muta™ Mice (100 mg/kg/day oral, up to 14 days, Subgroup 2 animals) is “squinting, partially closed eyes, fast respiration, mild hunched posture and piloerection”. Besides, the “outcome of Range-Finder 1” value in the series with Muta™ Mice (500 mg/kg/day oral, 6 males and 6 females) is “terminated on day 1 due to animal mortality/morbidity and convulsions”. For the same compound, in series [2], the MTD (usually the highest dose tested that stayed within the study's limit of toxicity) was 100 mg/kg/day. In series [3], the “time for which DMP433 formulations in vehicle are stable” value is listed as “up to 8 days”. Further, the “result of the gene mutation assay (capable of inducing mutation)” value in series [4] is given as “positive”.
